System: S. epidermidis, C. xerosis, M. furfur, P. Acnes
Experiment: Antimicrobial efficacy, challenge test, overall conclusion on the strains of table 1
Assay type: cell-based
Conditions: conclusion from table 1; almost comparable to Phenonip
Method: The antimicrobial efficacy of propanediol monoacetate mononitrate (PDMAMN) is assessed in analogy to the regulatory challenge test method (NF EN ISO11930). The following test solutions were tested • 1. Inv 1: 400 mg PDMAMN in 1 ml PEG 400 were diluted with 40 mL physiological serum (0.85% NaCl) containing 7% Ethanol (˜1% of PDMAMN) • 2. Inv 2: 200 mg PDMAMN in 1 ml PEG 400 were diluted in 40 mL physiological serum (0.85% NaCl) containing 7% Ethanol (˜0.5% of PDMAMN) • 3. Inv 3: 40 mg 3-PDMAMN in 1 ml PEG 400 were diluted in 40 mL physiological serum (0.85% NaCl) containing 7% Ethanol (˜0.1% of PDMAMN) • 4. Ref 1: Physiological serum (0.85% NaCl) • 5. Ref 2: 1 mL PEG 400+40 mL physiological serum (0.85% NaCl) containing 7% Ethanol • 6. Control: 0.5% Phenonip in physiological serum (0.85% NaCl)
All test solutions were deposed in 96-deep well plates (1.6 ml/well). The wells were contaminated with the respective bacterial or the fungal strains as outlined in table 1*10^5 to 1*10^6 cfu/ml for the bacteria and 1*10^4 to 1*10^5 cfu/ml for the fungi to obtain the initial contamination as outlined in table 1, Zero. After the contamination, each well was thoroughly mixed to ensure a homogeneous distribution of the microorganism. Then each plate was incubated at 22° C. for 24 h. The counting of the (remaining) population was carried out 24 h after contamination.

For CC(=O)OCCCO[N+](=O)[O-] [propanediol monoacetate mononitrate, 1,3-propanediol monoacetate mononitrate], the antimicrobial activity was “excellent antimicrobial activity”.
